{"source": "patent US8163795B2", "about": "“Chroman derivatives, medicaments and use in therapy” (Marshall Edwards, Inc., priority 2004, dated 2012)", "key": {"MM200 melanoma cell line [1]": {"system": "MM200 melanoma cell line", "test": "Proliferation assay (MTT)", "assay_type": "cell-based", "details": "read-out: IC50"}, "cancer cell lines": {"system": "cancer cell lines", "test": "Proliferation assays, statements over several cancer cell lines", "assay_type": "cell-based", "details": "SKOV-3, PC3, MCF-7, MDA-MB-468, HTB-138, HPAC, large cell lung cancer", "procedure": "(§1) IC50 values were determined for each cell line. Cells were seeded in 96-well plates at an appropriate cell density as determined from growth kinetics analysis and cultured for 5 days in the absence and presence of the test compounds. Cell proliferation was assessed after the addition of 20 μl of 3-4,5 dimethylthiazol-2,5-diphenyl tetrazolium bromide (MTT, 2.5 mg/ml in PBS, Sigma) for 3-4 hrs at 37° C. according to manufacturer's instructions. IC50 values were calculated from semi-log plots of % of control proliferation on the y-axis against log dose on the x-axis."}, "[2]": {"system": "MEL-RM melanoma cells (TRAIL sensitive)", "test": "Apoptosis incidence in melanoma cells", "assay_type": "cell-based"}, "A2058 melanoma cell line": {"system": "A2058 melanoma cell line", "test": "Proliferation assay (MTT)", "assay_type": "cell-based", "details": "Homo sapiens"}, "[3]": {"system": "MCF-7 breast cancer cell line", "test": "Proliferation assay (MTT)", "assay_type": "cell-based", "details": "Homo sapiens, MCF7; Table 2.1; Breast MCF-7", "method_in_brief": "(§2)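 MTT reduction read-out after 3-4 hrs at 37° C served as the proliferation measure following 5 days of culture with test compounds. IC50 derived from semi-log % control versus log dose curves.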"}, "NCI-H460 (Lung)": {"system": "NCI-H460 (Lung)", "test": "Proliferation assay (MTT)", "assay_type": "cell-based", "details": "Homo sapiens", "method_in_brief": "as §2"}, "NCI-H23 (Lung)": {"system": "NCI-H23 (Lung)", "test": "Proliferation assay (MTT)", "assay_type": "cell-based", "details": "Homo sapiens, Table 2.1", "method_in_brief": "as §2"}, "[4]": {"system": "HPAC (CRL-2119) pancreatic cancer cell line", "test": "Proliferation assay (MTT)", "assay_type": "cell-based, human", "details": "Homo sapiens, HPAC, read-out: IC50"}, "[5]": {"system": "ME4405 melanoma cells (TRAIL sensitive)", "test": "Apoptosis incidence in melanoma cells", "assay_type": "cell-based"}, "[6]": {"system": "Mel-AT melanoma cells (Trail +ve/Caspase 8 −ve)", "test": "Apoptosis incidence in melanoma cells", "assay_type": "cell-based"}, "[7]": {"system": "MDA-MB-468 breast cancer cell line", "test": "Proliferation assay (MTT)", "assay_type": "cell-based", "details": "Homo sapiens, Breast MDA-MB-468, read-out: IC50"}, "[8]": {"test": "HMC and HHC pharmacokinetics, oral, human patients", "assay_type": "in vivo", "details": "plasma", "procedure": "Human patients were orally dosed with 200 mg of either HMC or HHC. For each challenged patient, blood was taken over a 6 hour period and the results averaged to characterise the plasma pharmacokinetics."}, "[9]": {"system": "IGR3 melanoma cells (Trail-resistant)", "test": "Apoptosis incidence in melanoma cells", "assay_type": "cell-based"}, "MM200 melanoma cell line [10]": {"system": "MM200 melanoma cell line", "test": "HMC combination with cisplatin (synergy)", "assay_type": "cell-based", "details": "for IC50: Table 8, single agent", "procedure": "as §1\n3-D model analysis of the cytotoxic interaction between drug A and drug B enables the representation of predicted inhibitory effect of two drugs in combination in 3 dimensions to reveal actual regions of synergy or antagonism. The 3D synergy plots are based on a theory of “Theretical Additivity” (TA) as outlined by Kanzawa et al (Int. J. Cancer 71, 311-319 (1997)). Theoretical Additivity was calculated from the cytotoxicities of drug A and drug B as monotherapies using the following formula which assumes the drugs are mutually exclusive inhibitors: […]\nThe TA is calculated for each combination of drug concentrations and subtracted from the observed experimental effect for each combination to give a measurement of synergisitic action.\nHMC synergy with cisplatin was assessed either in combination over 5 days exposure or in sequence (HMC→cisplatin) against the MM200 melanoma cell line. It was difficult to assess for synergisitic toxicity using a change in IC50 as a measure of synergy due to HMC toxicity as monotherapy (Table 8). […] Evidence of synergy using the HMC-cisplatin combination was further assessed using the HMC→cisplatin sequence (24 hr exposure to each compound in sequence) against the melanoma cell line MM200. Using change in IC50 to assess for synergy it was noted that HMC at concentrations of 2 μM markedly chemosensitised the MM200 cells to cisplatin by >1000 fold (Table 8). HMC induced chemosensitisation of MM200 cells to cisplatin was confirmed using 3D analysis of the data (FIG. 11B)."}, "[11]": {"system": "SKOV-3 ovarian cancer cell line", "test": "Proliferation assay (MTT)", "assay_type": "cell-based", "details": "Homo sapiens, SK-OV-3; Table 2.1; Ovarian SKOV-3; read-out: IC50"}, "[12]": {"details": "human, po, humans dosed orally with 200 mg"}}, "note": "Read-outs that look alike come from different tables or passages of the source."}
{"smiles": "COc1ccc(C2c3ccc(O)cc3OCC2c2ccc(O)cc2)cc1", "note": "(stereo not drawn) [Compound 1, 3-(4-hydroxyphenyl)-4-(4-methoxyphenyl)chroman-7-ol]", "values": [{"measurement": "IC50", "setting": "MM200 melanoma cell line [1]; Table 2.1, Melanoma MM200", "value": "700 ± 30", "unit": "nM"}, {"measurement": "IC50", "setting": "MM200 melanoma cell line [1]; Table 2.2, Melanoma MM200", "value": "1070 ± 500", "unit": "nM"}, {"measurement": "IC50", "setting": "MM200 melanoma cell line [1]; Table 15, melanoma MM200, monotherapy", "value": "1130 ± 520", "unit": "nM"}, {"measurement": "activity compared to DHE IC50 values", "setting": "cancer cell lines", "value": "5-10 fold"}, {"measurement": "Percent Apoptosis", "setting": "[2]; 24 hr exposure, 1 uM", "value": 0, "unit": "%"}, {"measurement": "Percent Apoptosis", "setting": "[2]; 24 hr exposure, 2 uM", "value": 8, "unit": "%"}, {"measurement": "Percent Apoptosis", "setting": "[2]; 24 hr exposure, 4 uM", "value": 25, "unit": "%"}, {"measurement": "Percent Apoptosis", "setting": "[2]; 24 hr exposure, 8 uM", "value": 39, "unit": "%"}, {"measurement": "Percent Apoptosis", "setting": "[2]; 24 hr exposure, 20 uM", "value": 38, "unit": "%"}, {"measurement": "Percent Apoptosis", "setting": "[2]; 48 hr exposure, 1 uM", "value": 1.5, "unit": "%"}, {"measurement": "Percent Apoptosis", "setting": "[2]; 48 hr exposure, 2 uM", "value": 8, "unit": "%"}, {"measurement": "Percent Apoptosis", "setting": "[2]; 48 hr exposure, 4 uM", "value": 22, "unit": "%"}, {"measurement": "Percent Apoptosis", "setting": "[2]; 48 hr exposure, 8 uM", "value": 38, "unit": "%"}, {"measurement": "Percent Apoptosis", "setting": "[2]; 48 hr exposure, 20 uM", "value": 30, "unit": "%"}, {"measurement": "IC50", "setting": "A2058 melanoma cell line; A2058, Table 2.1, Melanoma A2058", "value": "1200 ± 650", "unit": "nM"}, {"measurement": "IC50", "setting": "A2058 melanoma cell line; A2058, Table 15, melanoma A2058", "value": "1420 ± 480", "unit": "nM"}, {"measurement": "IC50", "setting": "[3]", "value": "7150 ± 7000", "unit": "nM"}, {"measurement": "IC50", "setting": "NCI-H460 (Lung); NCI-H460, Table 2.1, Lung NCI-H460", "value": "2230 ± 150", "unit": "nM"}, {"measurement": "IC50", "setting": "NCI-H460 (Lung); NCI-H460, Table 2.2, NSC Lung NCI-H460", "value": "2800 ± 2000", "unit": "nM"}, {"measurement": "IC50", "setting": "NCI-H23 (Lung)", "value": "3750 ± 2500", "unit": "nM"}, {"measurement": "IC50", "setting": "[4]; Table 2.1, Pancreatic CRL-2119", "value": "14100 ± 1160", "unit": "nM"}, {"measurement": "IC50", "setting": "[4]; Table 2.2, Pancreatic HPAC", "value": "2800 ± 900", "unit": "nM"}, {"measurement": "Percent Apoptosis", "setting": "[5]; 24 hr exposure, 1 uM", "value": 0, "unit": "%"}, {"measurement": "Percent Apoptosis", "setting": "[5]; 24 hr exposure, 2 uM", "value": 8, "unit": "%"}, {"measurement": "Percent Apoptosis", "setting": "[5]; 24 hr exposure, 4 uM", "value": 9, "unit": "%"}, {"measurement": "Percent Apoptosis", "setting": "[5]; 24 hr exposure, 8 uM", "value": 11, "unit": "%"}, {"measurement": "Percent Apoptosis", "setting": "[5]; 24 hr exposure, 20 uM", "value": 19, "unit": "%"}, {"measurement": "Percent Apoptosis", "setting": "[5]; 48 hr exposure, 1 uM", "value": 1.5, "unit": "%"}, {"measurement": "Percent Apoptosis", "setting": "[5]; 48 hr exposure, 2 uM", "value": 8, "unit": "%"}, {"measurement": "Percent Apoptosis", "setting": "[5]; 48 hr exposure, 4 uM", "value": 42, "unit": "%"}, {"measurement": "Percent Apoptosis", "setting": "[5]; 48 hr exposure, 8 uM", "value": 20, "unit": "%"}, {"measurement": "Percent Apoptosis", "setting": "[5]; 48 hr exposure, 20 uM", "value": 18, "unit": "%"}, {"measurement": "Percent Apoptosis", "setting": "[6]; 24 hr exposure, 1 uM", "value": 0, "unit": "%"}, {"measurement": "Percent Apoptosis", "setting": "[6]; 24 hr exposure, 2 uM", "value": 6, "unit": "%"}, {"measurement": "Percent Apoptosis", "setting": "[6]; 24 hr exposure, 4 uM", "value": 9, "unit": "%"}, {"measurement": "Percent Apoptosis", "setting": "[6]; 24 hr exposure, 8 uM", "value": 23, "unit": "%"}, {"measurement": "Percent Apoptosis", "setting": "[6]; 24 hr exposure, 20 uM", "value": 24, "unit": "%"}, {"measurement": "Percent Apoptosis", "setting": "[6]; 48 hr exposure, 1 uM", "value": 1, "unit": "%"}, {"measurement": "Percent Apoptosis", "setting": "[6]; 48 hr exposure, 2 uM", "value": 7, "unit": "%"}, {"measurement": "Percent Apoptosis", "setting": "[6]; 48 hr exposure, 4 uM", "value": 25, "unit": "%"}, {"measurement": "Percent Apoptosis", "setting": "[6]; 48 hr exposure, 8 uM", "value": 59, "unit": "%"}, {"measurement": "Percent Apoptosis", "setting": "[6]; 48 hr exposure, 20 uM", "value": 35, "unit": "%"}, {"measurement": "IC50", "setting": "[7]; MDA-MB-468, Table 2.1", "value": "1100 ± 350", "unit": "nM"}, {"measurement": "IC50", "setting": "[7]; MDA-MB-468, Table 2.2", "value": "2800 ± 4200", "unit": "nM"}, {"measurement": "Cmax", "setting": "[8]; [12]", "value": 513, "unit": "ng/mL"}, {"measurement": "Tmax", "setting": "[8]; [12]", "value": 2.17, "unit": "h"}, {"measurement": "t1/2", "setting": "[8]; humans dosed orally with 200 mg", "value": 3.99, "unit": "h"}, {"measurement": "half-life", "setting": "[8]; human patients, 200 mg oral, initial results", "value": 3.99, "unit": "h"}, {"measurement": "Percent Apoptosis", "setting": "[9]; 24 hr exposure, 1 uM", "value": 8, "unit": "%"}, {"measurement": "Percent Apoptosis", "setting": "[9]; 24 hr exposure, 2 uM", "value": 11, "unit": "%"}, {"measurement": "Percent Apoptosis", "setting": "[9]; 24 hr exposure, 4 uM", "value": 39, "unit": "%"}, {"measurement": "Percent Apoptosis", "setting": "[9]; 24 hr exposure, 8 uM", "value": 41, "unit": "%"}, {"measurement": "Percent Apoptosis", "setting": "[9]; 24 hr exposure, 20 uM", "value": 32, "unit": "%"}, {"measurement": "Percent Apoptosis", "setting": "[9]; 48 hr exposure, 1 uM", "value": 1, "unit": "%"}, {"measurement": "Percent Apoptosis", "setting": "[9]; 48 hr exposure, 2 uM", "value": 9, "unit": "%"}, {"measurement": "Percent Apoptosis", "setting": "[9]; 48 hr exposure, 4 uM", "value": 21, "unit": "%"}, {"measurement": "Percent Apoptosis", "setting": "[9]; 48 hr exposure, 8 uM", "value": 38, "unit": "%"}, {"measurement": "Percent Apoptosis", "setting": "[9]; 48 hr exposure, 20 uM", "value": 38, "unit": "%"}, {"measurement": "IC50", "setting": "MM200 melanoma cell line [10]; 120 h, 5 days exposure, read-out: IC50, Combined (monotherapy)", "value": 720, "unit": "nM"}, {"measurement": "Change Factor (HMC first)", "setting": "MM200 melanoma cell line [10]; HMC 1 uM 24 hr then cisplatin 24 hr", "value": "−1.31"}, {"measurement": "Change Factor (HMC first)", "setting": "MM200 melanoma cell line [10]; HMC 2 uM 24 hr then cisplatin 24 hr", "value": ">10000"}, {"measurement": "chemosensitisation of MM200 cells to cisplatin (change in IC50)", "setting": "MM200 melanoma cell line [10]; HMC 2 μM, HMC→cisplatin sequence", "value": "> 1000", "unit": "fold"}, {"measurement": "Change Factor (HMC first)", "setting": "MM200 melanoma cell line [10]; HMC 5 uM 24 hr then cisplatin 24 hr", "value": ">10000"}, {"measurement": "Change Factor (HMC first)", "setting": "MM200 melanoma cell line [10]; HMC 10 uM 24 hr then cisplatin 24 hr", "value": ">10000"}, {"measurement": "IC50", "setting": "MM200 melanoma cell line [10]; 24 hr exposure, read-out: IC50, 24 hr (monotherapy)", "value": 20600, "unit": "nM"}, {"measurement": "IC50", "setting": "[11]", "value": 2260, "unit": "nM"}]}
